Results as given in the supplement of paper PMC10307832.

Key:
Assay in all cases: relative viability (nuclei count vs DMSO), 5 days (fraction); higher = more cells survive
NCI-H650 = system: NCI-H650
How it was run: (§1)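 Cells from lung cancer lines were seeded into 1536-well plates and, one day later, dosed by pin tool. Treatments were either a single drug or a fixed dose of an anchor drug with five library-drug doses (not always all listed) in √10 steps. After 5 days, nuclei were stained in a one-step fixation (final 0.05% Triton X-100, 1% formaldehyde, 1 ug/ml Hoechst) and counted on 4× images, and relative viability is the treated-to-vehicle nuclei ratio, as the median of duplicate plates.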

LOU-NH91 = system: LOU-NH91
How it was run: as §1

NCI-H1755 = system: NCI-H1755
How it was run: as §1

HARA = system: HARA
How it was run: as §1

NCI-H2170 = system: NCI-H2170
How it was run: as §1

NCI-H23 = system: NCI-H23
How it was run: as §1

PC-3 [JPC-3] = system: PC-3 [JPC-3]
How it was run: as §1

NCI-H2126 = system: NCI-H2126
How it was run: as §1

BEN = system: BEN
How it was run: as §1

NCI-H2023 = system: NCI-H2023
How it was run: as §1

NCI-H441 = system: NCI-H441
How it was run: as §1

LCLC-97TM1 = system: LCLC-97TM1
How it was run: as §1

NCI-H1793 = system: NCI-H1793
How it was run: as §1

LU99A = system: LU99A
How it was run: as §1

NCI-H1666 = system: NCI-H1666
How it was run: as §1

NCI-H460 = system: NCI-H460
How it was run: as §1

NCI-H1915 = system: NCI-H1915
How it was run: as §1

SK-LU-1 = system: SK-LU-1
How it was run: as §1

NCI-H1944 = system: NCI-H1944
How it was run: as §1

NCI-H1395 = system: NCI-H1395
How it was run: as §1

A-427 = system: A-427
How it was run: as §1

LXF-289 = system: LXF-289
How it was run: as §1

NCI-H322M = system: NCI-H322M
How it was run: as §1

Question: With `O=c1[nH]c2ccccc2n1C1CCN(CCCC(c2ccc(F)cc2)c2ccc(F)cc2)CC1` [Pimozide] + CC(=O)Nc1cccc(-n2c(=O)n(C3CC3)c(=O)c3c(Nc4ccc(I)cc4F)n(C)c(=O)c(C)c32)c1 [Trametinib] (partner 0.02 µM) as the compound, how does the relative viability (NCI-H650; first compound 0.08 µM) read?
Answer: 0.97

Question: And the relative viability (NCI-H650; first compound 0.253 µM)?
Answer: 0.962

Question: What about the relative viability (NCI-H650; first compound 0.8 µM) of the same compound?
Answer: 0.885

Question: And the relative viability (NCI-H650; first compound 2.53 µM)?
Answer: 1.06

Question: And the relative viability (NCI-H650; first compound 8 µM)?
Answer: 0.974

Question: What about the relative viability (LOU-NH91; first compound 0.08 µM) of the same compound?
Answer: 0.649

Question: And the relative viability (LOU-NH91; first compound 0.253 µM)?
Answer: 0.822

Question: What about the relative viability (LOU-NH91; first compound 0.8 µM) of the same compound?
Answer: 0.755

Question: What about the relative viability (LOU-NH91; first compound 2.53 µM) of the same compound?
Answer: 0.841

Question: And the relative viability (LOU-NH91; first compound 8 µM)?
Answer: 0.819

Question: What about the relative viability (NCI-H1755; first compound 0.08 µM) of the same compound?
Answer: 0.748

Question: And the relative viability (NCI-H1755; first compound 0.253 µM)?
Answer: 0.766

Question: And the relative viability (NCI-H1755; first compound 0.8 µM)?
Answer: 0.736

Question: And the relative viability (NCI-H1755; first compound 2.53 µM)?
Answer: 0.761

Question: What about the relative viability (NCI-H1755; first compound 8 µM) of the same compound?
Answer: 0.712

Question: And the relative viability (HARA; first compound 0.08 µM)?
Answer: 0.612

Question: What about the relative viability (HARA; first compound 0.253 µM) of the same compound?
Answer: 0.662

Question: What about the relative viability (HARA; first compound 0.8 µM) of the same compound?
Answer: 0.739

Question: What about the relative viability (HARA; first compound 2.53 µM) of the same compound?
Answer: 0.458

Question: And the relative viability (HARA; first compound 8 µM)?
Answer: 0.631

Question: And the relative viability (NCI-H2170; first compound 0.08 µM)?
Answer: 0.943

Question: And the relative viability (NCI-H2170; first compound 0.253 µM)?
Answer: 0.874

Question: And the relative viability (NCI-H2170; first compound 0.8 µM)?
Answer: 0.832

Question: What about the relative viability (NCI-H2170; first compound 2.53 µM) of the same compound?
Answer: 0.83

Question: What about the relative viability (NCI-H2170; first compound 8 µM) of the same compound?
Answer: 0.857

Question: And the relative viability (NCI-H23; first compound 0.08 µM)?
Answer: 0.377

Question: What about the relative viability (NCI-H23; first compound 0.253 µM) of the same compound?
Answer: 0.369

Question: What about the relative viability (NCI-H23; first compound 0.8 µM) of the same compound?
Answer: 0.291

Question: And the relative viability (NCI-H23; first compound 2.53 µM)?
Answer: 0.369

Question: What about the relative viability (NCI-H23; first compound 8 µM) of the same compound?
Answer: 0.318

Question: What about the relative viability (PC-3 [JPC-3]; first compound 0.253 µM) of the same compound?
Answer: 0.683

Question: And the relative viability (PC-3 [JPC-3]; first compound 0.8 µM)?
Answer: 0.651

Question: What about the relative viability (PC-3 [JPC-3]; first compound 2.53 µM) of the same compound?
Answer: 0.656

Question: What about the relative viability (PC-3 [JPC-3]; first compound 8 µM) of the same compound?
Answer: 0.607

Question: And the relative viability (NCI-H2126; first compound 0.08 µM)?
Answer: 0.589

Question: What about the relative viability (NCI-H2126; first compound 0.253 µM) of the same compound?
Answer: 0.584

Question: And the relative viability (NCI-H2126; first compound 0.8 µM)?
Answer: 0.566

Question: What about the relative viability (NCI-H2126; first compound 2.53 µM) of the same compound?
Answer: 0.592

Question: What about the relative viability (NCI-H2126; first compound 8 µM) of the same compound?
Answer: 0.533

Question: And the relative viability (BEN; first compound 0.08 µM)?
Answer: 1.17

Question: What about the relative viability (BEN; first compound 0.253 µM) of the same compound?
Answer: 1.16

Question: And the relative viability (BEN; first compound 0.8 µM)?
Answer: 1.01

Question: And the relative viability (BEN; first compound 2.53 µM)?
Answer: 0.984

Question: What about the relative viability (BEN; first compound 8 µM) of the same compound?
Answer: 1.29

Question: And the relative viability (NCI-H2023; first compound 0.08 µM)?
Answer: 0.584

Question: What about the relative viability (NCI-H2023; first compound 0.253 µM) of the same compound?
Answer: 0.532

Question: What about the relative viability (NCI-H2023; first compound 0.8 µM) of the same compound?
Answer: 0.582

Question: And the relative viability (NCI-H2023; first compound 2.53 µM)?
Answer: 0.429

Question: What about the relative viability (NCI-H2023; first compound 8 µM) of the same compound?
Answer: 0.362

Question: What about the relative viability (NCI-H441; first compound 0.08 µM) of the same compound?
Answer: 0.425

Question: What about the relative viability (NCI-H441; first compound 0.253 µM) of the same compound?
Answer: 0.463

Question: And the relative viability (NCI-H441; first compound 0.8 µM)?
Answer: 0.335

Question: And the relative viability (NCI-H441; first compound 2.53 µM)?
Answer: 0.565

Question: What about the relative viability (NCI-H441; first compound 8 µM) of the same compound?
Answer: 0.315

Question: What about the relative viability (LCLC-97TM1; first compound 0.08 µM) of the same compound?
Answer: 0.191

Question: And the relative viability (LCLC-97TM1; first compound 0.253 µM)?
Answer: 0.189

Question: And the relative viability (LCLC-97TM1; first compound 0.8 µM)?
Answer: 0.166

Question: And the relative viability (LCLC-97TM1; first compound 2.53 µM)?
Answer: 0.185

Question: What about the relative viability (LCLC-97TM1; first compound 8 µM) of the same compound?
Answer: 0.207

Question: What about the relative viability (NCI-H1793; first compound 0.08 µM) of the same compound?
Answer: 0.478

Question: What about the relative viability (NCI-H1793; first compound 0.253 µM) of the same compound?
Answer: 0.391

Question: And the relative viability (NCI-H1793; first compound 0.8 µM)?
Answer: 0.391

Question: What about the relative viability (NCI-H1793; first compound 2.53 µM) of the same compound?
Answer: 0.44

Question: What about the relative viability (NCI-H1793; first compound 8 µM) of the same compound?
Answer: 0.515

Question: And the relative viability (LU99A; first compound 0.08 µM)?
Answer: 0.66

Question: What about the relative viability (LU99A; first compound 0.8 µM) of the same compound?
Answer: 0.522

Question: What about the relative viability (LU99A; first compound 2.53 µM) of the same compound?
Answer: 0.48

Question: And the relative viability (LU99A; first compound 8 µM)?
Answer: 0.524

Question: What about the relative viability (NCI-H1666; first compound 0.08 µM) of the same compound?
Answer: 0.888

Question: What about the relative viability (NCI-H1666; first compound 0.253 µM) of the same compound?
Answer: 0.804

Question: And the relative viability (NCI-H1666; first compound 0.8 µM)?
Answer: 0.835

Question: And the relative viability (NCI-H1666; first compound 2.53 µM)?
Answer: 0.866

Question: What about the relative viability (NCI-H1666; first compound 8 µM) of the same compound?
Answer: 0.787

Question: And the relative viability (NCI-H460; first compound 0.08 µM)?
Answer: 0.239

Question: What about the relative viability (NCI-H460; first compound 0.253 µM) of the same compound?
Answer: 0.0857

Question: What about the relative viability (NCI-H460; first compound 0.8 µM) of the same compound?
Answer: 0.131

Question: And the relative viability (NCI-H460; first compound 2.53 µM)?
Answer: 0.185

Question: And the relative viability (NCI-H460; first compound 8 µM)?
Answer: 0.14

Question: And the relative viability (NCI-H1915; first compound 0.08 µM)?
Answer: 0.293

Question: And the relative viability (NCI-H1915; first compound 0.253 µM)?
Answer: 0.296

Question: And the relative viability (NCI-H1915; first compound 2.53 µM)?
Answer: 0.296

Question: What about the relative viability (NCI-H1915; first compound 8 µM) of the same compound?
Answer: 0.287

Question: And the relative viability (SK-LU-1; first compound 0.08 µM)?
Answer: 0.463

Question: What about the relative viability (SK-LU-1; first compound 0.253 µM) of the same compound?
Answer: 0.472

Question: And the relative viability (SK-LU-1; first compound 0.8 µM)?
Answer: 0.455

Question: And the relative viability (SK-LU-1; first compound 2.53 µM)?
Answer: 0.404

Question: And the relative viability (SK-LU-1; first compound 8 µM)?
Answer: 0.352

Question: And the relative viability (NCI-H1944; first compound 0.08 µM)?
Answer: 0.396

Question: What about the relative viability (NCI-H1944; first compound 2.53 µM) of the same compound?
Answer: 0.346

Question: What about the relative viability (NCI-H1944; first compound 8 µM) of the same compound?
Answer: 0.409

Question: What about the relative viability (NCI-H1395; first compound 0.08 µM) of the same compound?
Answer: 0.929

Question: What about the relative viability (NCI-H1395; first compound 0.253 µM) of the same compound?
Answer: 0.924

Question: What about the relative viability (NCI-H1395; first compound 0.8 µM) of the same compound?
Answer: 0.993

Question: What about the relative viability (NCI-H1395; first compound 2.53 µM) of the same compound?
Answer: 1.09

Question: And the relative viability (NCI-H1395; first compound 8 µM)?
Answer: 0.916

Question: What about the relative viability (A-427; first compound 0.08 µM) of the same compound?
Answer: 0.771

Question: And the relative viability (A-427; first compound 0.253 µM)?
Answer: 0.75

Question: And the relative viability (A-427; first compound 0.8 µM)?
Answer: 0.701

Question: What about the relative viability (A-427; first compound 2.53 µM) of the same compound?
Answer: 0.682

Question: What about the relative viability (A-427; first compound 8 µM) of the same compound?
Answer: 0.68

Question: And the relative viability (LXF-289; first compound 0.08 µM)?
Answer: 0.623

Question: What about the relative viability (LXF-289; first compound 0.253 µM) of the same compound?
Answer: 0.67

Question: And the relative viability (LXF-289; first compound 0.8 µM)?
Answer: 0.627

Question: And the relative viability (LXF-289; first compound 2.53 µM)?
Answer: 0.687

Question: And the relative viability (LXF-289; first compound 8 µM)?
Answer: 0.674

Question: And the relative viability (NCI-H322M; first compound 0.08 µM)?
Answer: 0.402

Question: And the relative viability (NCI-H322M; first compound 0.253 µM)?
Answer: 0.505

Question: What about the relative viability (NCI-H322M; first compound 0.8 µM) of the same compound?
Answer: 0.538

Question: And the relative viability (NCI-H322M; first compound 2.53 µM)?
Answer: 0.546

Question: And the relative viability (NCI-H322M; first compound 8 µM)?
Answer: 0.54
